Tests used:
[1] = biological target: T1, cloned human MT1 receptors (Homo sapiens, UniProt P48039); experiment: 2-[125I]iodomelatonin competition binding, human MT1 in NIH3T3 cells; conditions: calculated from IC50 by Cheng-Prusoff, mean of at least three determinations
T1 construct: expressed in transfected cells
Description: (§1) Membranes were incubated for 90 min at 37° C. in binding buffer (Tris/HCl 50 mM, pH 7.4). The final membrane concentration was 5-10 μg of protein per tube. […] The pKi values are the mean of at least three independent determinations performed in duplicate. To define the functional activity of the compounds of Formula (I) at the MT1 and MT2 receptor subtypes, [^35S]GTPγS binding assays in NIH3T3 cells expressing human-cloned MT1 or MT2 receptors were performed. The amount of bound [^35S]GTPγS is proportional to the level of analogue-induced G-protein activation and is related to the intrinsic activity of the compound (i.e. a compound of Formula (I)) under study. […] Nonspecific binding was assessed using non-radiolabeled GTPγS (10 μM). […] Basal stimulation is the amount of [^35S]GTPγS specifically bound in the absence of the compounds of Formula (I) and was taken as 100%. […] All of the measurements were performed in triplicate.

[2] = biological target: T2, cloned human MT2 receptors (Homo sapiens, UniProt P49286); experiment: 2-[125I]iodomelatonin competition binding, human MT2 in NIH3T3 cells; conditions: human MT2 in NIH3T3 cells, calculated from IC50 by Cheng-Prusoff, mean of at least three determinations
T2 construct: expressed in transfected cells
T2 sequence (P49286 1-362): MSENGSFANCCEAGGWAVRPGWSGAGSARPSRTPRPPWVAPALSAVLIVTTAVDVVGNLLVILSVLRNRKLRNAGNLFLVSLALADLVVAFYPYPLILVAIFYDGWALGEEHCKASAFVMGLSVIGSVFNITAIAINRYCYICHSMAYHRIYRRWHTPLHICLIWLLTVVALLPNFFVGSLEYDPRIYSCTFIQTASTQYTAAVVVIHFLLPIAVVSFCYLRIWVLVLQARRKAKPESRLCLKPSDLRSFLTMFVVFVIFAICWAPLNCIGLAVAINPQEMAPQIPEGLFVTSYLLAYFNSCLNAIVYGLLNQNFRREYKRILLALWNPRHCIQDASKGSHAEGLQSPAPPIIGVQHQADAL
Description: as §1

[3] = biological target: T1, cloned human MT1 receptors; experiment: [35S]GTPγS binding assay, NIH3T3 cells expressing human MT1; type: biochemical; conditions: for MT1 IAr ± SEM (relative intrinsic activity): maximal net effect relative to MLT; on MT1 Activity: key: A = agonist; PA = partial agonist; ANT = antagonist; IA = Inverse agonist
Description: as §1

[4] = biological target: T2, cloned human MT2 receptors; experiment: [35S]GTPγS binding assay, NIH3T3 cells expressing human MT2; type: biochemical; conditions: for MT2 IAr ± SEM (relative intrinsic activity): maximal net effect relative to MLT; on MT2 Activity: key: A = agonist; PA = partial agonist; ANT = antagonist; IA = Inverse agonist
Description: as §1

T1 sequence (P48039 whole entry): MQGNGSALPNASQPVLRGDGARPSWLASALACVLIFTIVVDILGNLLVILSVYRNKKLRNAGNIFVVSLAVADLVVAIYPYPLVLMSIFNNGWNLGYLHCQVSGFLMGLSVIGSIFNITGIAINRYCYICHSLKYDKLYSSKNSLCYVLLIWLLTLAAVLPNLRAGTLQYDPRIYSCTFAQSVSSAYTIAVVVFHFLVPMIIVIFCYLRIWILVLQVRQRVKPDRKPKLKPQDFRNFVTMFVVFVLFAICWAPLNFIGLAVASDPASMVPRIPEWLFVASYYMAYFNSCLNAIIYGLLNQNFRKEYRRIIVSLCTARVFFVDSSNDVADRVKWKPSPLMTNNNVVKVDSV

Structure (SMILES)	MT1 pKi [1]	MT2 pKi [2]	MT1 IAr ± SEM (relative intrinsic activity) [3]	MT2 IAr ± SEM (relative intrinsic activity) [4]	Ki ([2]; read-out: MT2 pKi (converted)) [nM]	MT1 Activity [3]	MT2 Activity [4]	Ki ([1]; read-out: MT1 pKi (converted)) [nM]
COc1cccc(N(CCNC(C)=O)Cc2ccccc2)c1 [5k, N-{2-[(3-Methoxyphenyl)-benzylamino]ethyl}acetamide]	7.30 ± 0.10	9.12 ± 0.05	0.92 ± 0.06	0.31 ± 0.02	–	–	–	–
COc1cccc(NCCNC(C)=O)c1 [5l, N-[2{(3-Methoxyphenyl)-amino]ethyl}acetamide]	8.28 ± 0.01	–	0.84 ± 0.01	0.94 ± 0.03	7.59	–	–	–
CC(=O)NCCN(c1ccccc1)c1cccc(OCCCCc2ccccc2)c1 [5i]	7.45 ± 0.01	6.48 ± 0.29	0.12 ± 0.02	0.01 ± 0.01	–	ANT	ANT	–
COc1cccc(N(CCNC(C)=O)c2ccc3ccccc3c2)c1 [5g, N-{2-[(3-Methoxyphenyl)-β-naphthylamino]ethyl}acetamide]	6.88 ± 0.07	9.95 ± 0.64	0.17 ± 0.03	−0.20 ± 0.03	–	ANT	–	–
COc1ccc(N(CCNC(C)=O)c2cccc(OC)c2)cc1 [5d, N-{2-[(4-Methoxyphenyl)-3-methoxyphenylamino]ethyl}acetamide]	7.00 ± 0.01	9.06 ± 0.10	0.06 ± 0.03	0.03 ± 0.01	–	ANT	ANT	–
COc1cccc(N(CCNC(C)=O)c2cccc(OC)c2)c1 [5c, N-[2-(bis-3-methoxyphenylamino)ethyl]acetamide]	7.72 ± 0.13	10.56 ± 0.10	0.59 ± 0.05	0.15 ± 0.01	–	–	ANT	–
COc1cccc(N(CCNC(=O)C2CCC2)c2ccccc2)c1 [5o, N-{2-[(3-Methoxyphenyl)-phenylamino]ethyl}cyclobutancarboxamide]	–	8.43 ± 0.40	0.22 ± 0.01	0.29 ± 0.01	–	–	–	331
COc1cccc(N(CCN(C)C(C)=O)c2ccccc2)c1 [compound 6]	5.89 ± 0.07	7.28 ± 0.06	−0.01 ± 0.03	−0.01 ± 0.03	–	ANT	ANT	–
COc1cccc(N(C)CCCNC(C)=O)c1 [5m, N-{3-[(3-Methoxyphenyl)-methylamino]propyl}acetamide]	9.08 ± 0.04	8.70 ± 0.26	0.87 ± 0.05	1.07 ± 0.06	–	–	–	–
CC(=O)NCCN(c1ccccc1)c1cccc(Br)c1 [5f, N-{2-[(3-bromophenyl)-phenylamino]ethyl}acetamide]	7.77 ± 0.19	9.70 ± 0.43	0.43 ± 0.04	0.36 ± 0.01	–	–	–	–
